Data reported in US20030103901A1, “ELISA kit for the determination of CYP2C19 metabolic phenotypes and uses thereof” (McGill University, priority 2001, published 2003).
Marks after values point to notes of the source that are not given here.

Experiments:
[1] = tested on: AAMU-Ab; test: Competitive antigen ELISA, cross-reactivity of AAMU-Ab; type: binding, rabbit; settings: for % Cross-Reaction AAMU-Ab: competitive antigen ELISA, 0 = absence of inhibition or inhibition no higher than 40% at highest concentration tested (5×10^−3 M)
Description: (§1) Buffers and water without additives are filtered through millipore filters and kept for 1 week. BSA, antibodies, Tween™ 20 and horse radish peroxidase conjugates are added to these buffers and water just prior to use. Urine samples are usually collected 4 hours after drinking a cup of coffee (instant or brewed with approximately 100 mg of caffeine per cup) and stored at −80° C. The urine samples are diluted 10 times with sodium phosphate buffer (620 mosm, pH 7.50) and are subsequently diluted with water to give concentrations of AAMU and 1X no higher than 3×10^−6 M in the ELISA. All the pipettings are done with an eight-channel pipette, except those of the antibody and sample solutions. Starting with the last well, 100 μL of a carbonate buffer (100 mM, pH 9.6) containing 2.5 μg mL-^1 antibodies are added to each well. After 90 min. at room temperature, the wells are washed three times with […] of TPB: isotonic sodium phosphate buffer (310 mosm, pH 7.50) containing 0.05% Tween™ 20.
(§2) After the initial wash, unoccupied sites are blocked by incubation for 90 min. at room temperature with 100 μL TBP containing 3% BSA. The wells are washed four times with 100 μL TPB. The washing is followed by additions of 50 μL of 12 mg mL^−1 AAMU-HRP or 1X-HRP conjugate in 2×TPB containing 2% BSA, and 50 μL of either water, standard (13 standards; AAMU or 1X, 2×10^−4 to 2×10^−8 M) or sample in duplicate. The microplate is gently shaken with an orbital shaker at room temperature for 3-4 hours. The wells are washed three times with 100 μL TPB containing 1% BSA and three times with water containing 0.05% Tween™ 20. To the washed plate is added 150 μL of a substrate buffer composed of citric acid (25 mM) and sodium phosphate dibasic buffer (50 mM, pH 5.0) containing 0.06% hydrogen peroxide and 0.04% o-phenylenediamine hydrochloride.
(§3) Buffers and water without additives were filtered through millipore filters and kept for 1 week. BSA, antibodies, Tween™ 20 and horse radish peroxidase conjugates were added to these buffers and water just prior to use. Urine samples were usually collected 4 hours after drinking a cup of coffee (instant or brewed with approximately 100 mg of caffeine per cup) and stored at −80° C. They were diluted 10 times with sodium phosphate buffer (620 mosm, pH 7.50) and were subsequently diluted with water to give concentrations of AAMU and 1X no higher than 3×10^−6 M in the ELISA. All the pipettings were done with an eight-channel pipette, except those of the antibody and sample solutions. Starting with the last well, 100 μL of a carbonate buffer (100 mM, pH 9.6) containing 2.5 μg mL-^1 antibodies was pipetted. After 90 min. at room temperature, the wells were washed three times with 100 μL of TPB: isotonic sodium phosphate buffer (310 mosm, pH 7.50) containing 0.05% Tween™ 20.
(§4) After the initial wash, unoccupied sites were blocked by incubation for 90 min. at room temperature with 100 μL TBP containing 3% BSA. The wells were washed four times with 100 μL TPB. This was followed by additions of 50 μL of 12 mg mL^−1 AAMU-HRP or 1X-HRP conjugate in 2×TPB containing 2% BSA, and 50 μL of either water, standard (13 standards; AAMU or 1X, 2×10^−4 to 2×10^−8 M) or sample in duplicate. The microplate was gently shaken with an orbital shaker at room temperature for 3-4 hours. The wells were washed three times with 100 μL with TPB containing 1% BSA and three times with water containing 0.05% Tween™ 20. To the washed plate was added 150 μL of a substrate buffer composed of citric acid (25 mM) and sodium phosphate dibasic buffer (50 mM, pH 5.0) containing 0.06% hydrogen peroxide and 0.04% o-phenylenediamine hydrochloride. After 20 min. at room temperature with shaking, the reaction was stopped with 50 μL of 2.5 N HCl.
(§5) The cross reactivities of AAMU-Ab and 1X-Ab were tested using a wide variety of caffeine metabolites and structural analogs (Table 2 below).

[2] = tested on: 1X-Ab; test: Competitive antigen ELISA, cross-reactivity of 1X-Ab; type: binding, rabbit; settings: for % Cross-Reaction 1X-Ab: competitive antigen ELISA, 0 = absence of inhibition or inhibition no higher than 40% at highest concentration tested (5×10^−3 M)
Description: as §1, §2, §3, §4, §5

| IC50 ([2]; 1X-Ab, 1X-HRP conjugate, read-out: concentration required for 50% inhibition in the competitive antigen ELISA) [µM] | IC50 ([1]; AAMU-Ab, AAMU-HRP conjugate, read-out: concentration required for 50% inhibition in the competitive antigen ELISA) [µM] | SMILES | % Cross-Reaction AAMU-Ab [1] | % Cross-Reaction 1X-Ab [2] [%] |
| --- | --- | --- | --- | --- |
| – | – | Cn1c(=O)c2c(ncn2C)n(C)c1=O [1,3,7-Trimethyl Xanthine (Caffeine), 1,3,7-Trimethyl Xanthine] | 0% | 0 |
| – | – | Cn1c(=O)c2[nH]cnc2n(C)c1=O [1,3-Dimethyl Xanthine (Theophylline), 1,3-Dimethyl Xanthine] | 0% | 0.2 |
| – | – | Cn1c(=O)[nH]c2ncn(C)c2c1=O [1,7-Dimethyl Xanthine (Paraxanthine), 1,7-Dimethyl Xanthine] | 0% | 0.5 |
| – | – | Cn1c(=O)[nH]c2[nH]c(=O)n(C)c2c1=O [1,7-Dimethyluric acid] | 0% | 0 |
| 10 | – | Cn1c(=O)[nH]c2nc[nH]c2c1=O [1-Methyl Xanthine (1X), 1-Methyl Xanthine] | 0% | 100 |
| – | – | Cn1c(=O)[nH]c2[nH]c(=O)[nH]c2c1=O [1-Methyluric acid] | 0% | 11 |
| – | – | Cn1cnc2c1c(=O)[nH]c(=O)n2C [3,7-Dimethyl Xanthine (Theobromine), 3,7-Dimethyl Xanthine] | 0% | 0 |
| – | – | Cn1c(=O)[nH]c(=O)c2[nH]cnc21 [3-Methyl Xanthine] | 0% | 0 |
| – | – | CC(=O)Nc1c(N)n(C)c(=O)n(C)c1=O [5-Acetamino-6-amino-1,3-dimethyluracil] | 0% | 0 |
| – | 1.5 | CC(=O)Nc1c(N)n(C)c(=O)[nH]c1=O [5-Acetamino-6-amino-1-methyluracil] | 100% | 0 |
| – | – | CC(=O)Nc1c(N)[nH]c(=O)[nH]c1=O [5-Acetamino-6-amino-uracil] | 0.6% | 0 |
| – | – | Cn1cnc2[nH]c(=O)[nH]c(=O)c21 [7-Methyl Xanthine] | 0% | 0 |
| – | – | Cc1nc2[nH]c(=O)[nH]c(=O)c2[nH]1 [8-Methyl Xanthine] | 0% | 0 |
| – | – | Nc1nc2nc[nH]c2c(=O)[nH]1 [Guanine] | 0% | 0 |
| – | – | O=c1[nH]cnc2nc[nH]c12 [Hypoxanthine] | 0% | 0 |
| – | – | O=c1cc[nH]c(=O)[nH]1 [Uracil] | 0% | 0 |
| – | – | O=c1[nH]c(=O)c2[nH]c(=O)[nH]c2[nH]1 [Uric acid] | 0% | 0 |
| – | – | O=c1[nH]c(=O)c2[nH]cnc2[nH]1 [Xanthine] | 0^a % | 0 |
